pIC50: −log10 of the molar value. Where two headings read alike, the source gives them in different places.
Legend:
CCRF-CEM = experiment: cells; format: cell-based; conditions: Homo sapiens, leukemia, 48 h, read-out: Log10 LC50 (converted)
SR = experiment: cells; format: cell-based; conditions: Homo sapiens, 48 h, read-out: Log10 LC50 (converted)
HOP-62 = experiment: cells; format: cell-based; conditions: Homo sapiens; HOP-62, non-small cell lung cancer, 48 h; read-out: Log10 TGI (converted)
HOP-92 = experiment: cells; format: cell-based; conditions: Homo sapiens
NCI-H226 = experiment: cells; format: cell-based; conditions: Homo sapiens
KM12 = experiment: cells; format: cell-based; conditions: Homo sapiens
SF-268 = experiment: cells; format: cell-based; conditions: Homo sapiens
SNB-19 = experiment: cells; format: cell-based; conditions: Homo sapiens
SNB-75 = experiment: cells; format: cell-based; conditions: Homo sapiens
SK-MEL-28 = experiment: cells; format: cell-based; conditions: Homo sapiens
UACC-257 = experiment: cells; format: cell-based; conditions: Homo sapiens, UACC-257, 48 h
OVCAR-3 = experiment: cells; format: cell-based; conditions: Homo sapiens
OVCAR-5 = experiment: cells; format: cell-based; conditions: Homo sapiens
SK-OV-3 = experiment: cells; format: cell-based; conditions: Homo sapiens
A498 = experiment: cells; format: cell-based; conditions: Homo sapiens
RXF 393 = experiment: cells; format: cell-based; conditions: Homo sapiens
SN12C = experiment: NCI 60 cell line panel screening assay (SRB), SN12C; format: cell-based; conditions: Homo sapiens, 48 h
TK-10 = experiment: cells; format: cell-based; conditions: Homo sapiens, TK-10, 48 h, read-out: Log10 LC50 (converted)
MCF7 = experiment: cells; format: cell-based; conditions: Homo sapiens
BT-549 = experiment: cells; format: cell-based; conditions: Homo sapiens, BT-549, 48 h, read-out: Log10 LC50 (converted)
MOLT-4 = experiment: cells; conditions: Homo sapiens
NCI-H322M = experiment: cells; conditions: Homo sapiens, 48 h, read-out: Log10 LC50 (converted)
60 cell line panel = experiment: NCI 60 cell line panel, whole panel; conditions: panel
M14 = experiment: NCI 60 cell line panel screening assay (SRB), M14; conditions: Homo sapiens, M14, 48 h
T-47D = experiment: NCI 60 cell line panel screening assay (SRB), T-47D; conditions: Homo sapiens, T47D, 48 h, read-out: Log10 LC50 (converted)
[1] = read-out: Log10 LC50 (converted)

C[C@H]1[C@@H](F)O[C@@H]2O[C@@]3(C)CC[C@H]4[C@H](C)CC[C@@H]1[C@@]24OO3 [Compound VI, 10β-Fluoro-10-deoxoartemisinin]
CC50 (CCRF-CEM): > 100 µM
CC50 (SR): > 100 µM
IC (TGI) (HOP-62): 61.7 µM
CC50 (HOP-92; HOP-92, 48 h, read-out: Log10 LC50 (converted)): > 100 µM
IC (TGI) (HOP-92; HOP-92, non-small cell lung cancer, 48 h, read-out: Log10 TGI (converted)): 21.4 µM
CC50 (NCI-H226; NCI-H226, 48 h, read-out: Log10 LC50 (converted)): > 100 µM
IC (TGI) (NCI-H226; NCI-H226, non-small cell lung cancer, 48 h, read-out: Log10 TGI): > 100 µM
CC50 (KM12; KM12, 48 h, read-out: Log10 LC50 (converted)): > 100 µM
GI50 (KM12; KM12, colon cancer, 48 h, read-out: Log10 GI50 (converted)): 0.437 µM
CC50 (SF-268; SF-268, 48 h, read-out: Log10 LC50 (converted)): > 100 µM
IC (TGI) (SF-268; SF-268, CNS cancer, 48 h, read-out: Log10 TGI): > 100 µM
CC50 (SNB-19; SNB-19, 48 h, read-out: Log10 LC50 (converted)): > 100 µM
IC (TGI) (SNB-19; SNB-19, CNS cancer, 48 h, read-out: Log10 TGI): > 100 µM
CC50 (SNB-75; SNB-75, 48 h, read-out: Log10 LC50 (converted)): > 100 µM
IC (TGI) (SNB-75; SNB-75, CNS cancer, 48 h, read-out: Log10 TGI): > 100 µM
CC50 (SK-MEL-28; SK-MEL-28, 48 h, read-out: Log10 LC50 (converted)): > 100 µM
IC (TGI) (SK-MEL-28; SK-MEL-28, melanoma, 48 h, read-out: Log10 TGI): > 100 µM
CC50 (UACC-257; [1]): > 100 µM
IC (TGI) (UACC-257; read-out: Log10 TGI (converted)): > 100 µM
CC50 (OVCAR-3; OVCAR-3, 48 h, read-out: Log10 LC50 (converted)): > 100 µM
IC (TGI) (OVCAR-3; OVCAR-3, ovarian cancer, 48 h, read-out: Log10 TGI (converted)): > 100 µM
CC50 (OVCAR-5; OVCAR-5, 48 h, read-out: Log10 LC50 (converted)): > 100 µM
GI50 (OVCAR-5; OVCAR-5, ovarian cancer, 48 h, read-out: Log10 GI50 (converted)): 17 µM
IC (TGI) (OVCAR-5; OVCAR-5, ovarian cancer, 48 h, read-out: Log10 TGI (converted)): > 100 µM
CC50 (SK-OV-3; SK-OV-3, 48 h, read-out: Log10 LC50 (converted)): > 100 µM
GI50 (SK-OV-3; SK-OV-3, ovarian cancer, 48 h, read-out: Log10 GI50 (converted)): 24 µM
IC (TGI) (SK-OV-3; SK-OV-3, ovarian cancer, 48 h, read-out: Log10 TGI (converted)): > 100 µM
CC50 (A498; A498, 48 h, read-out: Log10 LC50 (converted)): > 100 µM
IC (TGI) (A498; A498, renal cancer, 48 h, read-out: Log10 TGI): > 100 µM
CC50 (RXF 393; RXF 393, 48 h, read-out: Log10 LC50 (converted)): > 100 µM
IC (TGI) (RXF 393; RXF 393, renal cancer, 48 h, read-out: Log10 TGI): > 100 µM
CC50 (SN12C; [1]): > 100 µM
IC (TGI) (SN12C; renal cancer, read-out: Log10 TGI): > 100 µM
CC50 (TK-10): > 100 µM
CC50 (MCF7; MCF7, 48 h, read-out: Log10 LC50 (converted)): > 100 µM
IC (TGI) (MCF7; MCF7, breast cancer, 48 h, read-out: Log10 TGI): > 100 µM
CC50 (BT-549): > 100 µM
CC50 (MOLT-4; MOLT-4, 48 h, read-out: Log10 LC50 (converted)): > 100 µM
CC50 (MOLT-4; MOLT-4, read-out: concentration for cytotoxicity (PG -50)): > 100 µM
pIC50 (MOLT-4; MOLT-4, read-out: concentration for primary growth inhibition (PG +50)): ~7.00
CC50 (NCI-H322M): > 100 µM
Delta of Log10 TGI (60 cell line panel): 1.18
Range of Log10 TGI (60 cell line panel): 1.56
CC50 (M14; [1]): > 100 µM
IC (TGI) (M14; read-out: Log10 TGI): > 100 µM
CC50 (T-47D): > 100 µM
